# Source: patent US11524021B2, “Use of ginsenoside M1 for manufacturing medicament for treating oral cancer” (priority 2018, dated 2022)
# Experiments:
# Format in all cases: cell-based
# [1] = test system: human oral cancer OECM-1 cells; assay: Migration of OECM-1 cells, wound healing assay; conditions: 18 h
# Experimental: (§1) FIGS. 5A-5B show ginsenoside M1 reduced the migration ability of human oral cancer cells. Human oral cancer cell line SAS cells (FIG. 5A) or OECM-1 cells (FIG. 5B) were cultured in 6-cm dish until the cells reached 100% confluence forming a monolayer. A clear zone was created by scratching using a sterile 200-μl pipette tip. The cells were incubated for 24 h (SAS cells) or 18 h (OECM-1 cells) with ginsenoside M1 (5˜10 μg/ml) or (0.1% DMSO). The migration distance was measured and compared to the vehicle-control cells. The data were expressed as mean±SD; n=3. *** indicates a significant difference at the level of p<0.001, compared to vehicle-control cells. (One-way ANOVA with Dunnett's multiple comparisons test).
# (§2) The cell migration ability was measured by wound healing assay. Plate 5×10^6 human oral cancer SAS cells or OECM-1 cells per 6-cm dish in 2 ml of culture medium and were grown overnight at 37° C. in a 5% CO2 incubator until the cells reached 100% confluence forming a monolayer. We used a sterile 200-μl pipette tip to create a scratched clear zone on the culture dish, and the wounds photographed by a phase contrast microscope as the baseline. […] The data were expressed as mean±SD; n=3. *** indicates a significant difference at the level of p<0.001, compared to vehicle-control cells. […]
# [2] = test system: human oral cancer OECM-1 cells; assay: Viability of human oral cancer OECM-1 cells, Trypan blue exclusion; conditions: 5˜20 μg/ml, 24 h
# Experimental: Human oral cancer cell line SAS cells (FIG. 1A) or OECM-1 cells (FIG. 1B) were incubated for 24 h with ginsenoside M1 (5˜20 μg/ml), ginsenoside Rh2 (5˜20 μg/ml) or vehicle (0.1% DMSO). The live cell numbers were counted by Trypan blue exclusion method. The data were expressed as mean±SD; n=3. *, ** and *** indicate a significant difference at the level of p<0.05, p<0.01 and p<0.001, respectively, compared to vehicle-control cells. (One-way ANOVA with Dunnett's multiple comparisons test).
# (§3) Plate 5×10^5 human oral cancer cells SAS per 6-cm dish in 2 ml of culture medium and were grown overnight at 37° C. in a 5% CO2 incubator. The cells were incubated for 24 h with ginsenoside M1 (5˜20 μg/ml), ginsenoside Rh2 (5˜20 μg/ml) or vehicle. Each group contains a final DMSO concentration of 0.1%. Thereafter, the cell numbers were counted by Trypan blue exclusion method. […] The data were expressed as mean±SD; n=3. *, ** and *** indicate a significant difference at the level of p<0.05, p<0.01 and p<0.001, respectively, compared to vehicle-control cells. (One-way ANOVA with Dunnett's multiple comparisons test).
# [3] = test system: normal human gingival epithelioid cell line SG; assay: Toxicity to normal human gingival epithelioid SG cells, Trypan blue exclusion; conditions: 20 μg/ml, 24 h
# Experimental: Human normal human gingival epithelioid cell line SG cells were incubated for 24 h with ginsenoside M1 (5˜20 μg/ml), ginsenoside Rh2 (5˜20 μg/ml) or vehicle (0.1% DMSO). The live cell numbers were counted by Trypan blue exclusion method. The data were expressed as mean±SD; n=3. ** and *** indicate a significant difference at the level of p<0.01 and p<0.001, respectively, compared to vehicle-control cells. (One-way ANOVA with Dunnett's multiple comparisons test).
# as §3, with “5×10^5 normal” for “5×10^5”, “gingival epithelioid cell line SG” for “oral cancer cells SAS”, “n=3.” for “n=3. *,”, “of” for “of p<0.05,”
# [4] = test system: human oral cancer cells OECM-1; assay: Colony formation of OECM-1 cells; conditions: 5˜20 μg/ml, 10 days
# Experimental: FIGS. 4A-4B show ginsenoside M1 reduced the colony formation ability of human oral cancer cells. Human oral cancer cell line SAS cells (FIG. 4A) or OECM-1 cells (FIG. 4B) were incubated for 10 days with ginsenoside M1 (5˜20 μg/ml) or vehicle (0.1% DMSO). The cells were fixed in 4% ice-cold paraformaldehyde and stained with 0.1% crystal violet, and the colonies were counted. The data were expressed as mean±SD; n=4. * and *** indicate a significant difference at the level of p<0.05 and p<0.001, respectively, compared to vehicle-control cells. (One-way ANOVA with Dunnett's multiple comparisons test).
# Plate 150 human oral cancer cells SAS or OECM-1 per 6-cm dish in 3 ml of culture medium and were grown overnight at 37° C. in a 5% CO2 incubator. The cells were incubated for 10 days with ginsenoside M1 (5˜20 μg/ml) or vehicle. The cells were changed for fresh medium containing the same concentration of ginsenoside M1 at day 5. The cells were fixed in 4% ice-cold paraformaldehyde for 15 min at […], and stained with 0.1% crystal violet 10 min at room temperature. […] The data were expressed as mean±SD; n=4. * and *** indicate a significant difference at the level of p<0.05 and p<0.001, respectively, compared to vehicle-control cells. (One-way ANOVA with Dunnett's multiple comparisons test).
# [5] = test system: human oral cancer SAS cells; assay: Migration of SAS cells, wound healing assay; conditions: 24 h
# Experimental: as §1, §2
smiles,measurement,setting,value
"CC(C)=CCC[C@](C)(O[C@@H]1OC(CO)[C@@H](O)[C@@H](O)C1O)[C@H]1CC[C@]2(C)C1[C@H](O)CC1[C@@]3(C)CC[C@H](O)C(C)(C)C3CC[C@]12C (stereo partly drawn) [ginsenoside M1, 20-O-β-D-glucopyranosyl-20(S)-protopanaxadiol]",migration ability of OECM-1 cells,[1]; 5 μg/ml,significantly inhibited
same,migration ability of OECM-1 cells,[1]; 10 μg/ml,significantly inhibited
same,cell numbers of human oral cancer OECM-1 cells,[2],dose-dependently inhibited
same,reduction of SG cell number compared to control cells,[3],50%
same,colony formation ability of OECM-1 cells,[4],dose-dependently inhibited
same,migration ability of SAS cells,[5]; 5 μg/ml,significantly inhibited
same,migration ability of SAS cells,[5]; 10 μg/ml,significantly inhibited
